Results from ChEMBL document CHEMBL4715821, “Discovery of 4-ethoxy-7H-pyrrolo[2,3-d]pyrimidin-2-amines as potent, selective and orally bioavailable LRRK2 inhibitors” (Bioorg Med Chem Lett, 2018).

Assays:
[1] = Dose normalized AUC (0 to t) in Han-Wistar rat brain at 10 mg/kg, po measured up to 7 hrs by UPLC-MS/MS analysis; type: ADME, organism-based; conditions: in vivo
[2] = In vivo inhibition of LRRK2 in C57BL6 mouse assessed as reduction in Ser935 phosphorylation in brain at 45 mg/kg, po after 1 hr by Western blot analysis; type: functional; parameters: scale not given: the % may be the effect or the level left
[3] = target: Tyrosine-protein kinase ABL1 (Homo sapiens) (UniProt P00519); assay: Inhibition of human ABL1 expressed in mammalian expression system assessed as residual activity at 1 uM by Kinomescan method relative to control
[4] = target: ALK tyrosine kinase receptor (Homo sapiens) (UniProt Q9UM73); assay: Inhibition of wild-type human partial length ALK (I1088 to E1409 residues) expressed in mammalian expression system assessed as residual activity at 1 uM by Kinomescan method relative to control
[5] = target: Cytoplasmic tyrosine-protein kinase BMX (Homo sapiens) (UniProt P51813); assay: Inhibition of wild-type human full length BMX (M1 to H675 residues) expressed in bacterial expression system assessed as residual activity at 1 uM by Kinomescan method relative to control
[6] = target: CDK2/Cyclin A2 (Homo sapiens) (UniProt P24941+P20248); assay: Inhibition of wild-type human full length CDK2 (M1 to L298 residues)/Cyclin A expressed in bacterial expression system assessed as residual activity at 1 uM by Kinomescan method relative to control
[7] = target: Casein kinase I isoform gamma-2 (Homo sapiens) (UniProt P78368); assay: Inhibition of CK1g2 (unknown origin) assessed as residual activity at 1 uM by Kinomescan method relative to control
[8] = target: Dual specificity protein kinase CLK3 (Homo sapiens) (UniProt P49761); assay: Inhibition of wild-type human full length CLK3 (M1 to R490 residues) expressed in bacterial expression system assessed as residual activity at 1 uM by Kinomescan method relative to control
[9] = target: Ephrin type-A receptor 6 (Homo sapiens) (UniProt Q9UF33); assay: Inhibition of wild-type human partial length EPHA6 (Y700 to E1046 residues) expressed in bacterial expression system assessed as residual activity at 1 uM by Kinomescan method relative to control
[10] = target: Vascular endothelial growth factor receptor 3 (Homo sapiens) (UniProt P35916); assay: Inhibition of wild-type human partial length FLT4 (E821 to E1196 residues) expressed in bacterial expression system assessed as residual activity at 1 uM by Kinomescan method relative to control
[11] = target: G protein-coupled receptor kinase 5 (Homo sapiens) (UniProt P34947); assay: Inhibition of GRK5 (unknown origin) assessed as residual activity at 1 uM by Kinomescan method relative to control
[12] = target: Glycogen synthase kinase-3 alpha (Homo sapiens) (UniProt P49840); assay: Inhibition of wild-type human full length GSK3A (M1 to S483 residues) expressed in bacterial expression system assessed as residual activity at 1 uM by Kinomescan method relative to control
[13] = target: Homeodomain-interacting protein kinase 3 (Homo sapiens) (UniProt Q9H422); assay: Inhibition of wild-type human partial length HIPK3 (M153 to N562 residues) expressed in mammalian expression system assessed as residual activity at 1 uM by Kinomescan method relative to control
[14] = target: Interleukin-1 receptor-associated kinase 1 (Homo sapiens) (UniProt P51617); assay: Inhibition of wild-type human partial length IRAK1 (R194 to S712 residues) expressed in mammalian expression system assessed as residual activity at 1 uM by Kinomescan method relative to control
[15] = target: Serine/threonine-protein kinase Nek7 (Homo sapiens) (UniProt Q8TDX7); assay: Inhibition of wild-type human full length NEK7 (M1 to S302 residues) expressed in bacterial expression system assessed as residual activity at 1 uM by Kinomescan method relative to control
[16] = target: Serine/threonine-protein kinase PAK 5 (Homo sapiens) (UniProt Q9P286); assay: Inhibition of PAK5 (unknown origin) assessed as residual activity at 1 uM by Kinomescan method relative to control
[17] = target: PAS domain-containing serine/threonine-protein kinase (Homo sapiens) (UniProt Q96RG2); assay: Inhibition of wild-type human partial length PASK (E942 to G1265 residues) expressed in mammalian expression system assessed as residual activity at 1 uM by Kinomescan method relative to control
[18] = target: Serine/threonine-protein kinase pim-1 (Homo sapiens) (UniProt P11309); assay: Inhibition of wild-type human partial length PIM1 (A15 to K313 residues) expressed in bacterial expression system assessed as residual activity at 1 uM by Kinomescan method relative to control
[19] = target: Serine/threonine-protein kinase SIK2 (Homo sapiens) (UniProt Q9H0K1); assay: Inhibition of wild-type human full length SIK2 (M1 to N926 residues) expressed in bacterial expression system assessed as residual activity at 1 uM by Kinomescan method relative to control
[20] = target: Tyrosine-protein kinase Srms (Homo sapiens) (UniProt Q9H3Y6); assay: Inhibition of wild-type human partial length SRMS (L208 to P488 residues) expressed in mammalian expression system assessed as residual activity at 1 uM by Kinomescan method relative to control
[21] = target: Tyrosine-protein kinase SYK (Homo sapiens) (UniProt P43405); assay: Inhibition of wild-type human partial length SYK (D354 to N635 residues) expressed in bacterial expression system assessed as residual activity at 1 uM by Kinomescan method relative to control
[22] = target: Non-receptor tyrosine-protein kinase TYK2 (Homo sapiens) (UniProt P29597); assay: Inhibition of wild-type human partial length TYK2 expressed in mammalian expression system assessed as residual activity at 1 uM by Kinomescan method relative to control
[23] = target: Serine/threonine-protein kinase ULK3 (Homo sapiens) (UniProt Q6PHR2); assay: Inhibition of wild-type human partial length ULK3 (M1 to Q290 residues) expressed in mammalian expression system assessed as residual activity at 1 uM by Kinomescan method relative to control
[24] = target: Serine/threonine-protein kinase VRK1 (Homo sapiens) (UniProt Q99986); assay: Inhibition of VRK1 (unknown origin) assessed as residual activity at 1 uM by Kinomescan method relative to control
[25] = target: Mitogen-activated protein kinase kinase kinase 1 (Homo sapiens) (UniProt Q13233); assay: Inhibition of MEKK1 (unknown origin) assessed as residual activity at 1 uM by Kinomescan method relative to control
[26] = target: Myosin light chain kinase (Homo sapiens) (UniProt Q32MK0); assay: Inhibition of MYLK3 (unknown origin) assessed as residual activity at 1 uM by Kinomescan method relative to control
[27] = target: Serine/threonine-protein kinase N3 (Homo sapiens) (UniProt Q6P5Z2); assay: Inhibition of PKN3 (unknown origin) assessed as residual activity at 1 uM by Kinomescan method relative to control
[28] = target: Serine/threonine-protein kinase tousled-like 1 (Homo sapiens) (UniProt Q9UKI8); assay: Inhibition of wild-type human partial length TLK1 (K447 to A754 residues) expressed in bacterial expression system assessed as residual activity at 1 uM by Kinomescan method relative to control

Q: With `CCOc1nc(Nc2ccc(C(=O)N3CCOCC3)cc2OC)nc2[nH]ccc12` as the molecule, how does the AUCt/dose [1] read?
A: 252 ng·h/g/mg/kg

Q: And the Activity [2]?
A: 50%

Q: What about the Activity [3] of the same molecule?
A: 105%

Q: And the Activity [4]?
A: 7.52%

Q: What about the Activity [5] of the same molecule?
A: 92.5%

Q: What about the Activity [6] of the same molecule?
A: 94.9%

Q: And the Activity [7]?
A: 95.6%

Q: What about the Activity [8] of the same molecule?
A: 90.1%

Q: And the Activity [9]?
A: 100%

Q: What about the Activity [10] of the same molecule?
A: 106%

Q: And the Activity [11]?
A: 92.6%

Q: What about the Activity [12] of the same molecule?
A: 87.8%

Q: What about the Activity [13] of the same molecule?
A: 98%

Q: What about the Activity [14] of the same molecule?
A: 105%

Q: What about the Activity [15] of the same molecule?
A: 97.7%

Q: What about the Activity [16] of the same molecule?
A: 105%

Q: What about the Activity [17] of the same molecule?
A: 98.4%

Q: And the Activity [18]?
A: 99.7%

Q: And the Activity [19]?
A: 97%

Q: And the Activity [20]?
A: 108%

Q: And the Activity [21]?
A: 92.1%

Q: And the Activity [22]?
A: 96.5%

Q: What about the Activity [23] of the same molecule?
A: 82%

Q: What about the Activity [24] of the same molecule?
A: 86.7%

Q: And the Activity [25]?
A: 99%

Q: What about the Activity [26] of the same molecule?
A: 96.9%

Q: And the Activity [27]?
A: 96.5%

Q: And the Activity [28]?
A: 98.1%
